{
  "source": "patent US10285967B2",
  "about": "“Monoacylglycerols for use in conjunction with a lipase inhibitor and/or diets low in fat and/or calories” (NESTEC S.A., priority 2013, dated 2019)",
  "key": {"[1]": {"test": "lipid maldigestion or malabsorption rat model (XENICAL-induced), EPA level in red blood cell lipids", "format": "in vivo", "settings": "FIG. 2; for level of EPA incorporated in red blood cells: rats, day 7, with XENICAL (ORLISTAT)", "description": "The concept was tested in a lipid maldigestion or malabsorption rat model. The maldigestion or malabsorption condition was obtained using XENICAL® (ORLISTAT), a pancreatic and gastric lipases inhibitor (tetrahydrolipstatin; see FIG. 7). Rats were fed during 21 days with long-chain polyunsaturated fatty acid (LC-PUFA) supplements containing mainly eicosapentaenoic (EPA) acid. Fish oil was used as a source of triacylglycerols, and different EPA glycerides were evaluated. XENICAL® (ORLISTAT) was given at a level sufficient to decrease lipid absorption by 40%. A group receiving fish oil without XENICAL® (ORLISTAT) was used as a positive control. At different time intervals (D3, D7, D14 and D21), the fatty acid profiles of red blood cell and plasma lipids were determined. At the end of the experiment, the fatty acid profiles of different tissues were determined.\nThe main objective was to follow the level of EPA in red blood cell and plasma lipids. The main comparison evaluated was the difference in EPA level between the group receiving EPA-containing sn-1(3) MAG (FIG. 1) in combination with XENICAL® (ORLISTAT) and the […] (fish oil+XENICAL® (ORLISTAT)).\nThis comparison corroborates the validity of the model."}, "[2]": {"test": "clinical study of EPA delivery under lipid maldigestion induced by XENICAL (ORLISTAT)", "format": "in vivo, human", "description": "This clinical study compared the efficacy of sn-1(3) MAG and fish oil (TAG) in delivering EPA in humans under lipid maldigestion conditions induced by XENICAL® (ORLISTAT). The comparison was tested in volunteers having a BMI of 37-40 kg/m2 and treated with XENICAL® (ORLISTAT) to induce lipid maldigestion or not treated with XENICAL® (ORLISTAT). The primary objective was to assess accretion of EPA in erythrocytes over 21 days when consumed as fish oil (TAG) or sn-1(3) MAG. The secondary objectives were to assess accretion of EPA in plasma over 21 days and also to assess the pharmacokinetics of EPA after an acute dose either in the form of sn-1(3) MAG or TAG (AUC in chylomicrons over 10 hours postprandial)."}},
  "data": [
    {"smiles": "CCCCCCCCCCC[C@@H](C[C@@H]1OC(=O)[C@H]1CCCCCC)OC(=O)[C@H](CC(C)C)NC=O", "note": "[XENICAL® (ORLISTAT), tetrahydrolipstatin, reference compound]", "values": [
      {"measurement": "EPA incorporation in red blood cells", "setting": "[1]; rats fed fish oil with XENICAL (ORLISTAT) vs fish oil without, day 7", "value": "decreases EPA incorporation in red blood cells"}
    ]},
    {"smiles": "CC/C=C\\C/C=C\\C/C=C\\C/C=C\\C/C=C\\CCCC(=O)OCC(O)CO", "note": "(stereo not drawn) [sn-1(3) MAG, sn-1(3)-monoeicosapentaenoylglycerol]", "values": [
      {"measurement": "carrier for EPA compared with fish oil (TAG)", "setting": "[2]; obese subjects treated with XENICAL (ORLISTAT)", "value": "better carrier for EPA than fish oil"},
      {"measurement": "chronic effect: accretion of EPA in erythrocytes after 21 days", "setting": "[2]; obese volunteers, with XENICAL (ORLISTAT), compared with fish oil + XENICAL, p=0.0001, FIG. 5", "value": "statistically significant"},
      {"measurement": "chronic effect: accretion of EPA in plasma after 21 days", "setting": "[2]; obese volunteers, with XENICAL (ORLISTAT), relative to fish oil + XENICAL, p=0.0003, FIG. 6", "value": "statistically significant"},
      {"measurement": "level of EPA incorporated in red blood cells", "setting": "[1]; compared with fish oil + XENICAL group, all P values lower than 0.05", "value": "statistically higher"},
      {"measurement": "level of EPA incorporated in red blood cells", "setting": "[1]; compared with fish oil group without XENICAL", "value": "even higher than the fish oil group"}
    ]}
  ]
}
